Laboratory results published in paper PMC5021161 (Environmental and Molecular Mutagenesis, 2016).
Like-named read-outs stand apart in the source and are kept apart here.

Legend:
bacteria = conditions: ref NTP, 1993; cited from earlier work
TK6 cells [1] = conditions: for % MN: 5% ethanol S9, 4 hr + 20 hr recovery
TK6 cells [2] = conditions: for % Relative Survival: 5% ethanol S9, 4 hr + 20 hr recovery
mammalian cells = conditions: Chinese hamster ovary cells; ref NTP, 1993; cited from earlier work
[3] = test system: TGx‐28.65 biomarker genes; conditions: 5% ethanol S9, 4 hr + 3-4 hr recovery
[4] = 2012, cited from earlier work
[5] = rats and mice; ref NTP, 1993; cited from earlier work
GADD45A = type: cell-based, human; conditions: 5% ethanol S9, 4 hr + 3-4 hr recovery
ATF3 = type: cell-based, human; conditions: 5% ethanol S9, 4 hr + 3-4 hr recovery
[6] = B6C3F1 mouse bone marrow cells; ref NTP, 1993; cited from earlier work
TK6 cells [7] = conditions: 5% ethanol S9, 4 hr + 20 hr recovery
CDKN1A = type: cell-based, human; conditions: 5% ethanol S9, 4 hr + 3-4 hr recovery

## c1ccoc1 [Furan]
bacteria
  Ames test: negative
TK6 cells [1]; 2 mM
  % MN: 1.57%
TK6 cells [1]; 3 mM
  % MN: 1.77%
TK6 cells [1]; 5 mM
  % MN: 2.78%
TK6 cells [1]; 5% ethanol‐induced S9
  clastogenicity (analysis of MN): clastogenic at high concentrations
TK6 cells [1]; for at least one concentration, definitive study
  statistically significant % MN increase relative to controls: over twofold
TK6 cells [2]; 2 mM
  % Relative Survival: 80.06%
TK6 cells [2]; 3 mM
  % Relative Survival: 64.52%
TK6 cells [2]; 5 mM
  % Relative Survival: 48.45%
TK6 cells [2]; 2% Aroclor‐induced S9, data not shown
  effect on RS, range finder: did not cause a decline in RS
Mammalian cells
  chromosomal aberrations: causes chromosomal aberrations
[3]; 2 mM
  Dendogram TGx‐28.65: +
  NSC TGx‐28.65: +
  PCA TGx‐28.65: +
[3]; 3 mM
  Dendogram TGx‐28.65: +
  NSC TGx‐28.65: +
  PCA TGx‐28.65: +
[3]; 5 mM
  Dendogram TGx‐28.65: +
  NSC TGx‐28.65: +
  PCA TGx‐28.65: +
[4]; Big Blue rats, ref McDaniel et al.
  liver DNA strand breaks, comet assay: DNA damage at high doses
[4]; F344 rats at cancer‐causing doses, ref Ding et al.
  DNA strand breaks by the comet assay: near‐linear dose‐dependent increase in DNA strand breaks
[5]
  carcinogenicity: causes liver cancer
GADD45A; 2 mM
  GADD45A fold change vs vehicle control (+S9): 1.4 fold change
GADD45A; 3 mM
  GADD45A fold change vs vehicle control (+S9): 1.4 fold change
GADD45A; 5 mM
  GADD45A fold change vs vehicle control (+S9): 2.4 fold change
ATF3; 2 mM
  ATF3 fold change vs vehicle control (+S9): 2.3 fold change
ATF3; 3 mM
  ATF3 fold change vs vehicle control (+S9): 3.1 fold change
ATF3; 5 mM
  ATF3 fold change vs vehicle control (+S9): 5.4 fold change
[6]
  chromosomal aberrations: causes chromosomal aberrations
TK6 cells [7]; 2 mM
  % Apoptotic cells: 7.07%
TK6 cells [7]; 3 mM
  % Apoptotic cells: 8.40%
TK6 cells [7]; 5 mM
  % Apoptotic cells: 15.26%
CDKN1A; 2 mM
  CDKN1A fold change vs vehicle control (+S9): 3.2 fold change
CDKN1A; 3 mM
  CDKN1A fold change vs vehicle control (+S9): 5.3 fold change
CDKN1A; 5 mM
  CDKN1A fold change vs vehicle control (+S9): 9.8 fold change
